Laboratory results as given in patent US20060217351A1, “Method for treating cardiovascular diseases” (priority 2003, published 2006).

Experiments:
[1] = system: platelet aggregation; experiment: anti-platelet aggregation ability of active metabolite enantiomers; conditions: enantiomers of active metabolite II
Description: The active metabolite is a mixture of four enantiomers each of which has shown dose dependent anti-platelet aggregation ability, and thus useful for the practice of the invention.

[2] = system: cerebral infarct; experiment: embolic cerebral infarction model; format: in vivo; conditions: rats
[3] = system: thrombus formation; conditions: rats, p.o., cited from earlier work; for ED50, prevention of thrombus formation: arteriovenous shunt model
[4] = system: platelet aggregation; experiment: comparative study of inhibition of platelet aggregation; format: in vivo; conditions: for inhibition of platelet aggregation: in thirty (30) minutes
[5] = storage stability of crystals; format: physicochemical; conditions: crystal form comparison

Row | SMILES | effect on total area of cerebral infarct [2] | ED50, prevention of thrombus formation [3] | inhibition of platelet aggregation [4] | storage stability [5] | further results
1 | O=C(O)/C=C1/CN(C(C(=O)C2CC2)c2ccccc2F)CCC1S (stereo not drawn) [RS enantiomer] |  |  |  |  | anti-platelet aggregation ability [1]: most potent
2 | COC(=O)[C@H](c1ccccc1Cl)N1CCc2sccc2C1 [clopidogrel bisulfate] | similar, yet milder effect on cerebral infarcts |  |  |  | potency compared to compound of formula I (times less potent) [2]: about 10 times
3 | COC(=O)[C@H](c1ccccc1Cl)N1CCc2sccc2C1 [clopidogrel, reference compound] |  | 7.0 mg/kg | minimal aggregation |  | 
4 | CC(=O)Oc1cc2c(s1)CCN(C(C(=O)C1CC1)c1ccccc1F)C2 (stereo not drawn) [compound of formula I, 2-Acetoxy-5-(α-cyclopropylcarbonyl-2-fluorobenzyl)-4,5,6,7-tetrahydrothieno[3,2-c]pyridine] | reduced the total area of cerebral infarct in rats, in a dose related manner | 0.65 mg/kg | greater than 50% |  | effect on thrombus formation ([3]; 0.12-3 mg/kg): prevented thrombus formation in a dose dependent manner; potency compared to clopidogrel (times higher) ([4]; in vivo, versus clopidogrel): approximately 10 times
5 | CC(=O)Oc1cc2c(s1)CCN(C(C(=O)C1CC1)c1ccccc1F)C2.Cl (stereo not drawn) [crystal B1, 2-Acetoxy-5-(α-cyclopropylcarbonyl-2-fluorobenzyl)-4,5,6,7-tetrahydrothieno[3,2-c]pyridine hydrochloride (crystal B1)] |  |  |  | more excellent storage stability than crystal A | 
6 | CC(=O)Oc1cc2c(s1)CCN(C(C(=O)C1CC1)c1ccccc1F)C2.Cl (stereo not drawn) [crystal B2, 2-Acetoxy-5-(α-cyclopropylcarbonyl-2-fluorobenzyl)-4,5,6,7-tetrahydrothieno[3,2-c]pyridine hydrochloride (crystal B2)] |  |  |  | more excellent storage stability than crystal B1 | 
